The data set deals with HEK-CMV-Luc2-Hygro cells. Nature of the data set: High-throughput genome-wide siRNA screen and validation screen for luciferase expression. It counts as cell-based, human. The conditions noted are these: Table 3, primary screen, 72 h; for per_cell: per cell luciferase yield relative to negative control; for VIA: viable cell density as % of negative control. How it is done: The Silencer Select™ Human genome siRNA library (Ambion), which targets 21,585 human genes with 3 siRNAs per gene, was used for screening. Each siRNA is arrayed in an individual well (Corning 3570, 384 well, white, solid bottom plates). The transfection was done in duplicates: 0.8 pmol of each siRNA was spotted to a well of a 384-well plate (Corning) and 20 μL of serum-free DMEM containing 0.07 μL of Lipofectamine™ RNAiMax (Life Technologies) was then added to each well. This lipid-siRNA mixture was incubated at ambient temperature for 30 min prior to addition of 4000 cells in 20 μL of DMEM containing 20% FBS (Gibco). After incubating the transfected cells at 37° C. in 5% CO2 for 72 hours, 20 μL of ONE-Glo™ Reagent (Promega) was added to one set of replicates for ‘overall luciferase yield’ quantification and 20 μL of CellTiter-Glo™ Reagent (Promega) was added to the second set of replicates for ‘viable cell density’ measurement. All plates were incubated at room temperature for 20 minutes to stabilize the luminescent signal and the signal was then measured with PerkinElmer Envision 2104 Multilabel™ plate reader.
The 56 genes which got targeted by at least two independent siRNAs (out of three) resulting in enhanced luciferase production with MAD-based z-score>3 from the primary screen were subjected to validation screen using 3 additional Silencer™ siRNAs (Ambion) with different sequences from those used in the primary screen. […] The transfection and assay processes were-the same as the primary genome-wide screen. Data visualization was performed in R computational environment (available on the World Wide Web at R-project.org/) by using ‘hexbin’ and ‘ggplot2’ packages.
The screen generated end-point data for ‘overall luciferase yield’ and ‘viable cell density’ in each well. For each plate, the median value of the negative control wells was set as 100% and was used to normalize corresponding sample wells. The ‘overall luciferase yield’ and ‘viable cell density’ were exported as % of negative control and the median absolute deviation (MAD)-based z-score was calculated for each sample.

With “38 (GCAGUGGACAUAGAAGAGATT; chemistry not given here; listed as Homo sapiens) [compound 38]”, the per_cell amounted to 140.7 and the VIA was 110.8.

With “39 (CGCUUUAACUGGAAGCUCUTT; chemistry not given here; listed as Homo sapiens) [compound 39]”, the per_cell turned out to be 147 and the VIA worked out at 103.7.

“40 (CGAUGUUCGUGGACAUUCUTT; chemistry not given here; listed as Homo sapiens) [compound 40]” returned a per_cell of 234.6 and a VIA of 80.01.

“41 (CAACAGUACUUACCGAUGUTT; chemistry not given here; listed as Homo sapiens) [compound 41]” showed a per_cell of 141.8 and a VIA of 115.5.

Substance “42 (CAAGUCACCUGUUACCUCATT; chemistry not given here; listed as Homo sapiens) [compound 42]” showed a per_cell of 171.8 and a VIA of 88.96.

On to “43 (GCUAAGUCUUUUCCACAGUTT; chemistry not given here; listed as Homo sapiens) [compound 43]”, for which the per_cell came to 155.4 and the VIA is 94.54.

Consider “44 (CAACAGAUCAGAGAACAAATT; chemistry not given here; listed as Homo sapiens) [compound 44]”, for which the per_cell came to 156.4 and the VIA was determined as 92.43.

As for “45 (GGAUAUUGGAGGCUAGUCATT; chemistry not given here; listed as Homo sapiens) [compound 45]”, the per_cell is recorded as 157.9 and the VIA is given as 89.68.

On to “46 (CUCUUAUGGUAACCAAUGATT; chemistry not given here; listed as Homo sapiens) [compound 46]”, for which the per_cell is reported as 160.2 and the VIA is given as 91.56.

Turning to “47 (GUACCUGCGGGAUUACUCATT; chemistry not given here; listed as Homo sapiens) [compound 47]”, the per_cell worked out at 160.7 and the VIA came to 90.99.

On to “48 (GCAAUGCUUGCAAAACUCATT; chemistry not given here; listed as Homo sapiens) [compound 48]”, for which the per_cell is reported as 189.3 and the VIA is listed as 90.98.

“49 (CGAAACUUGUCAACGGGAATT; chemistry not given here; listed as Homo sapiens) [compound 49]” had a per_cell of 179.2 and a VIA of 104.6.

The substance “50 (GGAGGAAUCUCGAAUGCGATT; chemistry not given here; listed as Homo sapiens) [compound 50]” yielded a per_cell of 173.3 and a VIA of 96.

On to “51 (CCAGCGAUACAACUCCUAUTT; chemistry not given here; listed as Homo sapiens) [compound 51]”, for which the per_cell came to 176.8 and the VIA is recorded as 83.64.

The substance “52 (GGAAGAACGUCUUGCACAATT; chemistry not given here; listed as Homo sapiens) [compound 52]” had a per_cell of 183.1 and a VIA of 85.47.

On to “53 (GAACAAAAUAGACCUCUUATT; chemistry not given here; listed as Homo sapiens) [compound 53]”, for which the per_cell was 162.7 and the VIA is 101.9.

In turn, “54 (GCAUCUGUCCGAUCGCUCUTT; chemistry not given here; listed as Homo sapiens) [compound 54]” had a per_cell of 143.9 and a VIA of 105.5.

As to “55 (CAACGGGACUAUUAUGAUATT; chemistry not given here; listed as Homo sapiens) [compound 55]”, the per_cell came out at 163.4 and the VIA stood at 89.58.

“56 (CAACGGGACUAUUAUGAUATT; chemistry not given here; listed as Homo sapiens) [compound 56]” displayed a per_cell of 163.5 and a VIA of 97.39.

For “57 (GAACGAGUACAGCAAUAUATT; chemistry not given here; listed as Homo sapiens) [compound 57]”, the per_cell is 140.9 and the VIA worked out at 108.2.

Consider “58 (ACAGGUCUUUAUCAAAGCATT; chemistry not given here; listed as Homo sapiens) [compound 58]”, for which the per_cell stood at 3.426 and the VIA is 100.2.

“59 (AGAUCUUUGUCAAGGUGUATT; chemistry not given here; listed as Homo sapiens) [compound 59]” returned a per_cell of 153.4 and a VIA of 96.26.

Turning to “60 (GGCGAAUGCUCCUGACUAATT; chemistry not given here; listed as Homo sapiens) [compound 60]”, the per_cell is given as 157 and the VIA came to 103.9.

Substance “61 (GGACGGAAGCGAAAAUCGATT; chemistry not given here; listed as Homo sapiens) [compound 61]” registered a per_cell of 216.2 and a VIA of 71.47.

Turning to “62 (AGGUCAAUGUGACUUUCCATT; chemistry not given here; listed as Homo sapiens) [compound 62]”, the per_cell came to 161.8 and the VIA is recorded as 105.

The substance “63 (CCUGGACAGUUUGAAGCAATT; chemistry not given here; listed as Homo sapiens) [compound 63]” returned a per_cell of 174.9 and a VIA of 88.01.

“64 (GAUCGUUUGAGAGAACAAATT; chemistry not given here; listed as Homo sapiens) [compound 64]” had a per_cell of 210.3 and a VIA of 77.11.

In turn, “65 (GCCUAGGAGUUAUCCUCUATT; chemistry not given here; listed as Homo sapiens) [compound 65]” returned a per_cell of 137.6 and a VIA of 112.2.

Turning to “66 (GCAACAGAAUCGAGCAAGATT; chemistry not given here; listed as Homo sapiens) [compound 66]”, the per_cell was 154.3 and the VIA worked out at 105.6.

Substance “67 (GGAUGACGAGCUGAACUUUTT; chemistry not given here; listed as Homo sapiens) [compound 67]” yielded a per_cell of 140.1 and a VIA of 113.4.

In the case of “68 (CAGGUAGUGUAAGCCCUCATT; chemistry not given here; listed as Homo sapiens) [compound 68]”, the per_cell is 303 and the VIA is 66.87.

Regarding “69 (CCCUCCUACUAUUACCCGUTT; chemistry not given here; listed as Homo sapiens) [compound 69]”, the per_cell was found to be 163 and the VIA came out at 96.87.

Regarding “70 (GAUUAUCCUUGUACUUUGATT; chemistry not given here; listed as Homo sapiens) [compound 70]”, the per_cell turned out to be 141.8 and the VIA is given as 101.9.

For the origin of these results see patent US20160319277A1, “METHODS OF IMPROVED PROTEIN PRODUCTION USING MIRNAs AND SIRNAs” (THE JOHNS HOPKINS UNIVERSITY, priority 2015, published 2016).
